From patent US7579324B2, “Conjugates of biologically active compounds, methods for their preparation and use, formulation and pharmaceutical applications thereof” (c-a-i-r biosciences GmbH, priority 2002, dated 2009) come the findings set out here.

One series deals with E. coli (DH5α). The series is described as follows: Antibiotic activity testing (TC50, dilution assay). The conditions noted are these: concentration that inhibits 50% of growth, turbidity OD600. It counts as cell-based. How it is done:
The TC50 or MIC procedure for antibiotic sensitivity testing involves an antibiotic dilution assay, which can be performed in microtitre plates. A series of twofold dilutions of each antibiotic are made in the wells, and then all wells are inoculated with a standard amount of the same test organism. After incubation, growth in the presence of the various antibiotics is observed by measuring turbidity.
Bacteria: B. pumilus and E. coli (DH5α)
Bacterial cultures are initiated from the plates for 2 to 3 weeks. After this time period bacteria are streaked out on new plates from the backups stored at −80° C. Due to the lack of resistance of the bacteria, new cultures are not to be initiated from an old plate or any liquid cultures derived from old plates.
Growth medium (GM)(per liter): 10 g Bacto-tryptone, 5 g Bacto-yeast extract, 6 g HEPES (25 mM), 5.4 g NaCl, pH 7.3
Compound stocks 10 or 100 mM in DMSO stored at −20° C.
1. Grow B.pumilus from an LB agar plate in a flask (max. 10% volume) up to about 50 ml in growth medium (GM)
2. Dilute overnight suspension 1:10 in GM
3. Determine OD600 of diluted bacterial suspension
4. Dilute bacterial suspension in GM to an OD600 of 0.03-0.04. (6 ml/plate)
5. Add 200 μl GM to the outer wells (Row A, Row H, Column 1, Column 12)
6. Add 100 μl GM to each well starting from C2, row 3.
7. Controls: Wells B2-B4 growth control. Wells B6-B8 blank. Row C growth inhibition control. • 7.1. To wells B2-B4 add: 96 μl GM, 4 μl DMSO, and 100 μl bacterial suspension adjusted to an OD600 of 0.03-0.04. • 7.2. To wells B6-B8 add: 196 μl GM and 4 μl DMSO • 7.3. Dilute a 10 mM COMPOUND 43 (positive control) stock to 800 μM (120 μl/plate) in GM. Add 100 μl of 800 μM COMPOUND 43 solution to well C2.
8. Samples • 8.1. Dilute the 10 or 100 mM stock solutions to 800 μM (250 μl/plate) in GM. • 8.2. Add 100 μl of 800 μM sample in duplicates to wells D2/E2 resp. F2/G2. • 8.3. 2-fold serial dilution of all samples and Azithromycin • 8.3.1. Rows C-G, Columns 2: Mix and transfer 100 μl from each row to Column 3, and continue until column 11. […]
11. Determine OD600 on plate reader.

The next series concerns white blood cells. As to the kind of experiment: Immune cell selective uptake (immune selectivity ratio) in blood cell preparations. It counts as cell-based, mammalian. As to conditions: uptake in white cells from blood cell mix; Y/N. Set-up: key: Y: Compounds exhibiting high uptake; N: similar structures that do not. The method, then:
Freshly drawn heparinised blood or buffy coat preparations are used for the determination of immune cell partition ratios. Buffy coat preparations are preferred. These may be obtained from donor blood by simple centrifugation of whole blood (4795 g for 10 minutes). Following centrifugation, plasma is collected from the surface, after which immune cells are expressed from the donor bags along with the erythrocytes lying immediately below the leukocyte layer. This ensures high yields and a sufficient population of erythrocytes for partition. 5 ml of the resulting cell suspension are dispensed into T25 culture flasks. Substrates are added to a final concentration between 1 and 10 μM and the suspensions incubated at 37° C., in a 5% CO2 atmosphere. For analysis of uptake kinetics, samples are withdrawn at 0, 2, 5, 10, 30, 60, 90, 180, or 240 min after substrate addition. For screening purposes, samples are taken at 0 and 120 minutes.
Cell fractions were prepared using density gradient centrifugation. Mononuclear cells and polymorphonuclear cells are separated from erythrocytes essentially by layering the cell suspension on a viscous medium typically composed of a solution containing Ficoll or similar (commercial suppliers include: Lymphoprep, Axis Shield, 1031966; Lymphoflot HLA, 824010; or PMN Separation Medium Robbins Scientific 1068-00-0). The layered suspension is then centrifuged at 600 g, 20 min, after which the cell fractions and the plasma (incubation medium) fraction are removed by gentle aspiration, washed twice in PBS buffer, followed by estimation of the cell number and pellet volume.
Uptake of fluorescent compounds is monitored using fluorescence microscopy. Excitation and emission wavelengths depend of the fluorescence label in use. A typical label is a methoxy coumarin for which the appropriate wavelengths are 360 and 450 nm respectively. Fluorescent analogs of the compounds under study permit the estimation of appropriate uptake intervals as well as the likely intracellular distribution of the compounds. Fluorescent analogs also allow the estimation of losses in washing or other cell manipulations.
Cell preparations are lysed in water and the debris sedimented at 16100 g, 10 min. The supernatant is recovered and sub-sampled for protein and DNA content. Protein in the supernatant is precipitated by bringing the solution to […] ethanol and centrifuging again at 16100 g, 10 min.
Compound uptake is normalized according to cytoplasmic volume of cells in order to obtain the average concentration in the cells. Cell volume is estimated by correlation of DNA, protein or haem content of lysed cell aliquots to cell number and packed volume prior to lysis.
Cell lysates are analysed using a HP 1100 HPLC System (Agilent Technologies, Waldbronn, Germany) with a Kromasil 3.5μ C18, 50×2.0 mm column and guard cartridge system (both, Phenomenex, Aschaffenburg, Germany) run at 30° C. A gradient elution was performed using water, 0.05% formic acid (A) and acetonitrile 0.05% formic acid (B) (0 min. 5% B, 2.5 min 5% B, 2.8 min 40% B, 10.5 min 85% B, 12.0 min 95% B, 16.5 min 95% B) at a flow rate of 300 μl/min. Re-equilibration of column was at 5% B, at a flow rate of 750 μl/min for 2.4 min. The HPLC-eluate from retention time 0.0 min to 2.5 min was directed directly to waste. Detection was via a UV cell at 214 nm followed by a ⅙ split to an An API-qTOF 1 (Micromass, Manchester, UK) mass spectrometer, (calibrated daily using a mixture of NaI, RbI and CsI). The mass spectrometer is routinely operated in the positive electrospray ionization mode using the following settings: Capillary voltage 4000 V; cone voltage 30 V; RF Lens offset 0.38 V; source block temperature 80° C.; desolvation gas temperature 140° C.; desolvation gas 240 l/h; LM/HM Resolution 0.0; Collision energy 4.0 V; Ion energy 5.0 V.
Masses are monitored according to the known or expected M/Z ratios. […]

For the molecule `CC[C@H]1OC(=O)[C@H](C)[C@@H](O[C@H]2C[C@@](C)(OC)[C@@H](O)[C@H](C)O2)[C@H](C)[C@@H](O[C@@H]2O[C@H](C)C[C@H](N(C)C)[C@H]2O)[C@](C)(O)C[C@@H](C)CN(C)[C@H](C)[C@@H](O)[C@]1(C)O` [COMPOUND 43, 9a-aza-9a-methyl-9-deoxo-9a-homoerythromycin A, reference compound], the “TC50 in E. coli” value in the series on E. coli (DH5α) was found to be 2.3 µM.
Regarding `CC[C@H]1OC(=O)[C@H](C)[C@@H](O[C@H]2C[C@@](C)(OC)[C@@H](O)[C@H](C)O2)[C@H](C)[C@@H](O[C@@H]2O[C@H](C)CC(N(C)C(=O)CN(C)CCO)[C@H]2O)[C@](C)(O)C[C@@H](C)CN(C)[C@H](C)[C@@H](O)[C@]1(C)O` (stereo partly drawn) [COMPOUND 45], the “TC50 in E. coli” value with E. coli (DH5α) is more than 50 µM.
Turning to `CC[C@H]1OC(=O)[C@H](C)C(=O)[C@H](C)[C@@H](O[C@@H]2O[C@H](C)C[C@H](N(C)C)[C@H]2OC(=O)Cc2ccccc2Nc2c(Cl)cccc2Cl)[C@](C)(O)C[C@@H](C)CN(C)[C@H](C)[C@@H](O)[C@]1(C)O` [COMPOUND 53], in the series on E. coli (DH5α), the “TC50 in E. coli” value is more than 50 µM.
In the case of `O=c1ccc2cc(O[C@@H]3O[C@H](CO)C(O)[C@H](O)C3O)c(O)cc2o1` (stereo partly drawn) [Compound 1], the Concentrative uptake entry in the series on white blood cells is “Y”.
For the molecule `CC[C@H]1OC(=O)[C@H](C)[C@@H](OC2C[C@@](C)(OC)[C@@H](O)[C@H](C)O2)[C@H](C)[C@@H](OC2O[C@H](C)C[C@H](N(C)C)[C@H]2O)[C@](C)(O)C[C@@H](C)/C(=N/OCc2cc(=O)oc3cc(OC)c(OC)cc23)[C@H](C)[C@@H](O)[C@]1(C)O` (stereo partly drawn) [Compound 3], the Concentrative uptake result in the series on white blood cells is “Y”.
As for `COc1cc(C)c(/C(=C\C(C)=O)CC(N)C(=O)O)cc1OC` (stereo not drawn) [Compound 4], the Concentrative uptake entry in the series on white blood cells is “Y”.
In the case of `CC[C@H]1OC(=O)[C@H](C)[C@@H](O[C@H]2C[C@@](C)(OC)[C@@H](O)[C@H](C)O2)[C@H](C)[C@@H](OC2O[C@H](C)C[C@H](N(C)C)[C@H]2O)[C@](C)(O)C[C@@H](C)CN(Cc2cc(=O)oc3cc(OC)ccc23)[C@H](C)[C@@H](O)[C@]1(C)O` (stereo partly drawn) [Compound 7], the Concentrative uptake entry with white blood cells is “Y”.
As to `CC(C)(C)OC(=O)NC(CSCC(=O)NCCNc1cccc2c(S(=O)(=O)O)cccc12)C(=O)O` (stereo not drawn) [Compound 8], the Concentrative uptake result with white blood cells is on record as “Y”.
Regarding `COc1ccc2c(CSc3ncnc4[nH]cnc34)cc(=O)oc2c1` [Compound 9], in the series with white blood cells, the Concentrative uptake entry was “N”.
The same measure, in the same setting: in the case of `COc1cc2oc(=O)cc(CC(NC(=O)CN)C(=O)O)c2cc1OC` (stereo not drawn) [Compound 10] it was “N”.
As for `CN(C)c1cccc2c(S(=O)(=O)NNC(=N)N)cccc12` [Compound 11], the Concentrative uptake result in the series with white blood cells is recorded as “N”.
With `COc1cc(C)c(/C(=C\C(C)=O)CC(NC(=O)CCN)C(=O)O)cc1OC` (stereo not drawn) [Compound 12], the Concentrative uptake entry in the series on white blood cells is listed as “N”.
Take `COc1cc(C)c(/C(=C\C(C)=O)CC(NC(=O)C(N)CCC(=O)O)C(=O)O)cc1OC` (stereo not drawn) [Compound 14]: the Concentrative uptake result in the series with white blood cells is reported as “N”.
`O=C(CSc1ncnc2[nH]cnc12)NCCNc1cccc2c(S(=O)(=O)O)cccc12` [Compound 15]: in the series with white blood cells, the Concentrative uptake result is reported as “Y”.
As for `Cc1cc(=O)oc2cc(SCC(=O)NC3CCOC3=O)ccc12` (stereo not drawn) [Compound 22], in the series on white blood cells, the Concentrative uptake result is on record as “Y”.
Same read-out and setting: in the case of `Cc1cc(=O)oc2cc(SCC(=O)NCCN3CCOCC3)ccc12` [Compound 23] it was “Y”; in that of `Cc1cc(=O)oc2cc(SCC(=O)NN3CCN(CCO)CC3)ccc12` [Compound 24], “N”.
Turning to `Cc1cc(=O)oc2cc(SCC(=O)NN3CCOCC3)ccc12` [Compound 25], in the series on white blood cells, the Concentrative uptake entry is “N”.
For the molecule `CN(C)c1cccc2c(S(=O)(=O)NN3CCN(CCO)CC3)cccc12` [Compound 26], the Concentrative uptake result with white blood cells is given as “Y”.
`CN(C)c1cccc2c(S(=O)(=O)Nc3cc(O)[nH]n3)cccc12` [Compound 27]: the Concentrative uptake result in the series on white blood cells is listed as “Y”.
Turning to `COC(=O)C1CN(S(=O)(=O)c2cccc3c(N(C)C)cccc23)CCC1=O` (stereo not drawn) [Compound 29], the Concentrative uptake result with white blood cells is “N”.
In the case of `CN(C)c1cccc2c(S(=O)(=O)N3CCN(c4ccc(O)cc4)CC3)cccc12` [Compound 30], the Concentrative uptake result with white blood cells is “N”.
`CN(C)c1cccc2c(S(=O)(=O)N3CCN(CCO)CC3)cccc12` [Compound 31]: the Concentrative uptake result in the series on white blood cells is listed as “N”.
Regarding `CN(C)c1cccc2c(S(=O)(=O)NC(C)(CO)CO)cccc12` [Compound 32], the Concentrative uptake result with white blood cells was “N”.
For the molecule `CN(C)c1cccc2c(S(=O)(=O)N(CCO)CCO)cccc12` [Compound 33], the Concentrative uptake result in the series with white blood cells is listed as “N”.
With `CN(C)c1cccc2c(S(=O)(=O)Nc3c[nH]c(=O)[nH]c3=O)cccc12` [Compound 34], the Concentrative uptake entry in the series on white blood cells is “N”.
Turning to `CN(C)c1cccc2c(S(=O)(=O)Nc3ccc(C(=O)O)cc3O)cccc12` [Compound 35], in the series with white blood cells, the Concentrative uptake entry is listed as “N”.
The same measure, in the same setting: the same measure for `CCN(CC)c1ccc(NS(=O)(=O)c2cccc3c(N(C)C)cccc23)cc1` [Compound 36]: “N”.
For the molecule `CN(C)c1cccc2c(S(=O)(=O)NCCCN3CCCC3=O)cccc12` [Compound 37], the Concentrative uptake entry in the series on white blood cells is reported as “N”.
Take `COc1ccc(/C(=C\C(C)=O)CSc2nnc(-c3ccc([NH+]([O-])O)o3)s2)c(C)c1` (stereo not drawn) [Compound 38]: the Concentrative uptake entry with white blood cells is reported as “N”.
